Results: ChEMBL document CHEMBL1641507, “The effect of structural differences in the reducing terminus of sugars on the binding affinity of carbohydrates and proteins analyzed using photoaffinity labeling” (Bioorg Med Chem, 2011)
The source made the active and inactive calls.

Key:
Lectin (Glycine max) [1] = biological target: Lectin (Glycine max) (UniProt P05046); assay: Binding affinity to soybean lectin assessed as compound-protein complex formation incubated for 30 mins followed by UV irradiation by SDS-PAGE based photoaffinity labeling in presence of lactose
[2] = biological target: T1, Lectin (Erythrina crista-galli) (UniProt P83410); assay: Binding affinity to Erythrina cristagalli lectin assessed as compound-protein complex formation incubated for 30 mins followed by UV irradiation by SDS-PAGE based photoaffinity labeling
T1 sequence (whole entry): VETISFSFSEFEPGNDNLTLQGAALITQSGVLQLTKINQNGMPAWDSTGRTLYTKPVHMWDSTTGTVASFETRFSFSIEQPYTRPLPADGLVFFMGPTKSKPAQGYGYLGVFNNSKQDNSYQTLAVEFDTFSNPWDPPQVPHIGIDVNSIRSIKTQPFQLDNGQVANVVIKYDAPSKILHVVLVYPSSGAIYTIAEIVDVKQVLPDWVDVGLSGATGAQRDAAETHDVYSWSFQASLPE

[3] = biological target: T1, Lectin (Erythrina crista-galli); assay: Binding affinity to Erythrina cristagalli lectin assessed as compound-protein complex formation incubated for 30 mins followed by UV irradiation by SDS-PAGE based photoaffinity labeling in presence of lactose
Lectin (Glycine max) [4] = biological target: Lectin (Glycine max) (UniProt P05046); assay: Binding affinity to soybean lectin assessed as compound-protein complex formation incubated for 30 mins followed by UV irradiation by SDS-PAGE based photoaffinity labeling

Measured: Activity

Chain of Lectin (Glycine max) (P05046 whole entry): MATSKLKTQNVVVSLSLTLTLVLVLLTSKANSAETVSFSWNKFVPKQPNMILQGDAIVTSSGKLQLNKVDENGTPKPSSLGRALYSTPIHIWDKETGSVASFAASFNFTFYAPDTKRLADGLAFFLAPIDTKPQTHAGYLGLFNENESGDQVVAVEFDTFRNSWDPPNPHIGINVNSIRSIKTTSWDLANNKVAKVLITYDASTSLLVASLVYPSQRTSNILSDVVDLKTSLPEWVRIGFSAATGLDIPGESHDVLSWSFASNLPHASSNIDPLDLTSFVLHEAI

O=C(CCCC[C@@H]1SC[C@H]2NC(=O)N[C@@H]12)NCCOCCOCCOc1cc(C2(C(F)(F)F)N=N2)ccc1CO/N=C/[C@@H](O)[C@@H](O)[C@H](O[C@@H]1O[C@H](CO)[C@H](O)[C@H](O)[C@H]1O)[C@H](O)CO
active: all assays above
